{
  "source": "patent US4582821A",
  "about": "“Inhibition of cyclic nucleotide independent protein kinases” (E. I. Du Pont de Nemours and Company, priority 1983, dated 1986)",
  "key": {"[1]": {"system": "A-431 plasma membrane extracts (EGF-mediated protein phosphorylation)", "assay": "Protein phosphorylation in solubilized A-431 plasma membrane extracts, with or without EGF", "assay_type": "biochemical, human", "conditions": "477 nmol/mg protein; for EGF Added (pmol 32P incorporated/min/mg protein): control 96.2; for No EGF Added (pmol 32P incorporated/min/mg protein): control 21.6", "description": "The capacity of certain peptide halomethyl ketones to inhibit protein phosphorylation is illustrated by Examples 1-8, below, in which solubilized plasma membranes prepared from A-431 human epidermoid carcinoma cells were incubated with [γ-^32 P] ATP in the presence of EGF.\nA-431 human epidermoid carcinoma cells were grown in Dulbecco's modified Eagle's medium containing 5% fetal calf serum. Plasma membranes were isolated by a method substantially similar to that described by Thom et al., Biochem J. 168:187 (1977), and kept at -70°. Solubilization of plasma membranes was performed substantially as described by Cohen et al., J. Biol. Chem. 255:4834 (1980). In this procedure, 7.5 mg/mL protein was solubilized with 5% Triton X-100 (octylphenol), 10% glycerol, and 20 mM Hepes buffer (N-2-hydroxyethylpiperazine-N^1 -2-ethanesulfonic acid), pH 7.4. This mixture was incubated for 20 minutes at about 23°, followed by centrifugation at 100,000 xg for 60 minutes.\n(§1) Protein phosphorylation assays were conducted substantially as described by Carpenter et al., J. Biol. Chem. 254:4884 (1979). Each assay mixture contained, in a final volume of 70 μL: 20 mM Hepes, pH 7.4, 0.01% bovine serum albumin (BSA), 15-150 μg protein in Triton extract, 100 ng EGF, 1 mM MnCl2 and 10-20 μM [γ-^32 P] ATP (2-4 μCi). Peptide halomethyl ketones were added as solutions in ethanol; an equivalent volume of ethanol was added to controls. Assay mixtures were incubated at about 23° for ten minutes, with or without added EGF. Mixtures were then held at 0° for ten minutes before initiation of phosphorylation by addition of 15 μM γ-^32 P) ATP (2 μCi). Reactions were terminated after 3 minutes at 0° by applying an aliquot of the assay mixture to a Whatman 3MM filter paper (2×2 cm), which was then suspended in ice-cold 10% trichloroacetic acid containing 10 mM pyrophosphate. This suspension was gently shaken for a period of 1 hour, during which the trichloroacetic acid/pyrophosphate mixture was changed three times. Finally, the filter papers were dried and radioactivity measured by scintillation counting."}, "A-431 cell EGF receptor": {"target": "T1, A-431 cell EGF receptor (Homo sapiens, UniProt P00533)", "T1 construct": "intact A-431 cell membranes were employed, rather than solubilized extracts; endogenous in cells; host or cells: A-431 human epidermoid carcinoma cells (plasma membranes)", "T1 sequence (P00533 25-1210)": "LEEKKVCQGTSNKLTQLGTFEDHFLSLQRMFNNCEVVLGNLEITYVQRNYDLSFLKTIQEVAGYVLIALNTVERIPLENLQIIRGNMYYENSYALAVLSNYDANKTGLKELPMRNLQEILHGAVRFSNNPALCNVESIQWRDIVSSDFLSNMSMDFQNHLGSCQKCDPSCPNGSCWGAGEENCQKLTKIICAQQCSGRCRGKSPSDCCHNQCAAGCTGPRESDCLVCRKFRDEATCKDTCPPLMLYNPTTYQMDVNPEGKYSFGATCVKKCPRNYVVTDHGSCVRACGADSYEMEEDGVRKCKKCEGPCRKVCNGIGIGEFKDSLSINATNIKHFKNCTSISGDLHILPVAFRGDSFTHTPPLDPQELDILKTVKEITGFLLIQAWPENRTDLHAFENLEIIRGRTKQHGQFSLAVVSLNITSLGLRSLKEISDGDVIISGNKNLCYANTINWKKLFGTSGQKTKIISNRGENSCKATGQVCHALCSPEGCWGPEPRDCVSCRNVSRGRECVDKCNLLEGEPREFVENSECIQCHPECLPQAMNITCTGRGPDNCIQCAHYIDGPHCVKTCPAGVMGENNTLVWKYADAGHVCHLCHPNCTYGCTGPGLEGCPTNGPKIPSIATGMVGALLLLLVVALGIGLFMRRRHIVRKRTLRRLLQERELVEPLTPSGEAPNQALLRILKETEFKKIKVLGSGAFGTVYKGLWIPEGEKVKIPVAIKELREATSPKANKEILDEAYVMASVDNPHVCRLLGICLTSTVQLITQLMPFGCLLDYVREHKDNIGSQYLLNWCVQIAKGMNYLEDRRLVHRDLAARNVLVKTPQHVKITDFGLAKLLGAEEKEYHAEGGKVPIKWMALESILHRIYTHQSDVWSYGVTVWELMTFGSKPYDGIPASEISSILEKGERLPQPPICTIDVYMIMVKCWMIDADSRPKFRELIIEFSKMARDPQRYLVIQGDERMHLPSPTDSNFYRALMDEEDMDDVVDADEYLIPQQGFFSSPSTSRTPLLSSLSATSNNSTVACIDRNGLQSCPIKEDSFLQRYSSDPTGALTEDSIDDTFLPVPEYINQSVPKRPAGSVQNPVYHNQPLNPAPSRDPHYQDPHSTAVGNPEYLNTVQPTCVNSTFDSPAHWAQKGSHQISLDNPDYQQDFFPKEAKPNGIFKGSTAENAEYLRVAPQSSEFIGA", "assay": "Protein phosphorylation of A-431 cell membrane EGF receptors (intact membranes, EGF present)", "assay_type": "biochemical", "conditions": "600 nmoles/mg protein, intact A-431 membranes", "description": "as §1\nAssays were conducted substantially as described above, except intact A-431 cell membranes were employed, rather than solubilized extracts, and assay mixtures contained 1 mM ouabain. In these Examples, reactions were permitted to proceed for 6 minutes. This technique is substantially similar to that disclosed by Navarro et al., Biochemistry, 21:6138 (1982)."}, "[2]": {"system": "lymphoma cell line MOLT-4", "assay": "Tumor cell line growth inhibition, MOLT-4", "assay_type": "cell-based", "description": "(§2) In this series of experiments, the tumor cell growth inhibitory capacity of various peptide halomethyl ketones was tested against lymphoma cell lines YAC-1 and MOLT-4, and against an erythroleukemia cell line, K-562. The lymphoma cell line YAC-1 is described by Kiessling, et al., Eur. J. Immunol. 5:112 (1975), and MOLT-4 is described by Minowada, et al., J. Natl. Cancer Inst. 49:891 (1972) and Nilsson, et al., Int. J. Cancer 15:321 (1975). The erythroleukemia cell line K-562 is described by Lozzio, et al., Leuk. Res. 3:363 (1979). In these experiments, cells were grown on standard media as 10 mL suspension cultures. Initial cell density was 10^5 cells/mL. At day 0, test compounds were introduced in ethanol; control cultures received an equal volume of ethanol. Cells were counted at the times indicated."}, "[3]": {"system": "erythroleukemia cell line K-562", "assay": "Tumor cell line growth inhibition, K-562", "assay_type": "cell-based", "description": "as §2"}, "p130^fps": {"target": "T2, p130^fps (UniProt P00530+P03323)", "T2 construct": "anti-gag serum and Staphylococcus protein A suspension (for FSV-transformed cells); viral gag-derived N-terminal portion (natural gag-fps fusion); expressed in transfected cells; immune complex with anti-gag serum and Staphylococcus protein A", "assay": "Immune complex phosphorylation by p130fps immunoprecipitates of FSV-transformed cells", "assay_type": "biochemical, Fujinami sarcoma virus (FSV)", "conditions": "for Activity (cpm), FSV: anti-gag immunoprecipitates, no inhibitor 27036; for Activity (cpm), Control: extracts immunoprecipitated with normal serum, no inhibitor 2624", "description": "In this experiment, Boc-LeuCH2 Br was tested as an inhibitor of pp60^src and p130^fps, the tyrosine-specific protein kinases encoded by the transforming genes of RSV and Fujinami sarcoma virus, respectively.\nThese viral gene products were partially purified by preparation of immune complexes substantially according to the technique described by Collett et al., Proc. Nat. Acad. Sci. USA 75:2021 (1978). In this procedure, immunoprecipitates are prepared by incubation of extracts of virus-transformed cells with tumor-bearing rabbit serum (TBR) and Staphylococcus protein A suspension (for RSV-transformed cells) or anti-gag serum and Staphylococcus protein A suspension (for FSV-transformed cells).\nAssay mixtures contained, in a final volume of 70 μL, 100 μg of immune complex protein, 20 mM Hepes, pH 7.4, and 1 mM MnCl2. Phosphorylation was initiated by addition of 1 μM (4 μCi) [γ-^32 P] ATP. After 10 minutes at about 23°, reactions were terminated by pipetting 20 μL aliquots of assay mixture onto 2×2 cm squares of Whatman 3 MM filter paper, which were immediately suspended in 10% TCA/10 mM sodium pyrophosphate. […] Controls for the immunoprecipitation procedure were prepared by immunoprecipitating transformed cell extracts with normal serum. Values in parentheses represent specific phosphorylation induced by virus-transformed cells.\nIn a related experiment, the capacity of Boc-LeuCH2 Br to inhibit phosphorylation of casein by p130^fps was determined. These tests were conducted substantially as described above, except 1 mg/mL casein was added to assay mixtures as a substrate, and reactions were terminated by addition of 2.5 mM unlabeled ATP and immediate cooling to 0°. Phosphorylated casein was separated from immunoprecipitate suspensions by centrifugation at 3,000 xg for 3 minutes. The resulting pellets were resuspended in 70 μL of 10 mM Hepes, pH 7.5, and 20 μL aliquots were pipetted onto filter paper squares as previously described.\nThis experiment was conducted substantially according to the procedures described in Example 17, above. In Table 5, \"FSV\" refers to immunoprecipitates of FSV-transformed cell extracts prepared by addition of anti-gag serum; controls were extracts immunoprecipitated with normal serum."}},
  "data": [
    {"smiles": "CC(C)(C)OC(=O)N[C@@H](Cc1ccc(O)cc1)C(=O)CCl", "note": "[Boc-TyrCH2 Cl]", "values": [
      {"measurement": "% inhibition, EGF Added", "setting": "[1]", "value": 45, "unit": "%"},
      {"measurement": "EGF Added (pmol 32P incorporated/min/mg protein)", "setting": "[1]", "value": "53.0 pmol^32 P incorporated/min/mg"},
      {"measurement": "% inhibition, No EGF Added", "setting": "[1]", "value": 64, "unit": "%"},
      {"measurement": "No EGF Added (pmol 32P incorporated/min/mg protein)", "setting": "[1]", "value": "7.8 pmol^32 P incorporated/min/mg"},
      {"measurement": "% inhibition", "setting": "A-431 cell EGF receptor", "value": 34, "unit": "%"},
      {"measurement": "% Growth Relative to Control Cultures", "setting": "[2]; 0.4 μg/mL, day 1", "value": 80, "unit": "%"},
      {"measurement": "% Growth Relative to Control Cultures", "setting": "[2]; 0.4 μg/mL, day 3", "value": 85, "unit": "%"},
      {"measurement": "% Growth Relative to Control Cultures", "setting": "[2]; 0.4 μg/mL, day 4", "value": 69, "unit": "%"},
      {"measurement": "% Growth Relative to Control Cultures", "setting": "[2]; 2.0 μg/mL, day 1", "value": 56, "unit": "%"},
      {"measurement": "% Growth Relative to Control Cultures", "setting": "[2]; 2.0 μg/mL, day 2", "value": 31, "unit": "%"},
      {"measurement": "% Growth Relative to Control Cultures", "setting": "[2]; 2.0 μg/mL, day 3", "value": 17, "unit": "%"},
      {"measurement": "% Growth Relative to Control Cultures", "setting": "[2]; 2.0 μg/mL, day 4", "value": 16, "unit": "%"},
      {"measurement": "% Growth Relative to Control Cultures", "setting": "[2]; 2.0 μg/mL, day 7", "value": 31, "unit": "%"},
      {"measurement": "% Growth Relative to Control Cultures", "setting": "[2]; 10. μg/mL, day 1", "value": 39, "unit": "%"},
      {"measurement": "% Growth Relative to Control Cultures", "setting": "[2]; 10. μg/mL, day 2", "value": 19, "unit": "%"},
      {"measurement": "% Growth Relative to Control Cultures", "setting": "[2]; 10. μg/mL, day 3", "value": 8, "unit": "%"},
      {"measurement": "% Growth Relative to Control Cultures", "setting": "[2]; 10. μg/mL, day 4", "value": 3, "unit": "%"},
      {"measurement": "% Growth Relative to Control Cultures", "setting": "[2]; 10. μg/mL, day 7", "value": 0, "unit": "%"},
      {"measurement": "% Growth Relative to Control Cultures", "setting": "[3]; 2.0 μg/mL, day 1", "value": 81, "unit": "%"},
      {"measurement": "% Growth Relative to Control Cultures", "setting": "[3]; 2.0 μg/mL, day 2", "value": 23, "unit": "%"},
      {"measurement": "% Growth Relative to Control Cultures", "setting": "[3]; 2.0 μg/mL, day 3", "value": 15, "unit": "%"},
      {"measurement": "% Growth Relative to Control Cultures", "setting": "[3]; 2.0 μg/mL, day 4", "value": 19, "unit": "%"},
      {"measurement": "% Growth Relative to Control Cultures", "setting": "[3]; 2.0 μg/mL, day 7", "value": 44, "unit": "%"},
      {"measurement": "% Growth Relative to Control Cultures", "setting": "[3]; 10. μg/mL, day 1", "value": 64, "unit": "%"},
      {"measurement": "% Growth Relative to Control Cultures", "setting": "[3]; 10. μg/mL, day 2", "value": 7, "unit": "%"},
      {"measurement": "% Growth Relative to Control Cultures", "setting": "[3]; 10. μg/mL, day 3", "value": 2, "unit": "%"},
      {"measurement": "% Growth Relative to Control Cultures", "setting": "[3]; 10. μg/mL, day 4", "value": 2, "unit": "%"},
      {"measurement": "% Growth Relative to Control Cultures", "setting": "[3]; 10. μg/mL, day 7", "value": 0, "unit": "%"}
    ]},
    {"smiles": "CC(C)(C)OC(=O)N[C@@H](Cc1ccc(O)cc1)C(=O)CBr", "note": "[Boc-TyrCH2 Br]", "values": [
      {"measurement": "% inhibition, EGF Added", "setting": "[1]", "value": 78, "unit": "%"},
      {"measurement": "EGF Added (pmol 32P incorporated/min/mg protein)", "setting": "[1]", "value": "20.6 pmol^32 P incorporated/min/mg"},
      {"measurement": "% inhibition, No EGF Added", "setting": "[1]", "value": 83, "unit": "%"},
      {"measurement": "No EGF Added (pmol 32P incorporated/min/mg protein)", "setting": "[1]", "value": "3.6 pmol^32 P incorporated/min/mg"},
      {"measurement": "% inhibition", "setting": "A-431 cell EGF receptor", "value": 49, "unit": "%"},
      {"measurement": "% inhibition", "setting": "p130^fps; 250 nmoles/mg protein", "value": 84, "unit": "%"},
      {"measurement": "Activity (cpm), FSV", "setting": "p130^fps; 250 nmoles/mg protein", "value": 4204, "unit": "cpm"},
      {"measurement": "Activity (cpm), Control", "setting": "p130^fps; 250 nmoles/mg protein", "value": 2132, "unit": "cpm"},
      {"measurement": "% inhibition", "setting": "p130^fps; 500 nmoles/mg protein", "value": 87, "unit": "%"},
      {"measurement": "Activity (cpm), FSV", "setting": "p130^fps; 500 nmoles/mg protein", "value": 3404, "unit": "cpm"},
      {"measurement": "Activity (cpm), Control", "setting": "p130^fps; 500 nmoles/mg protein", "value": 2140, "unit": "cpm"}
    ]}
  ]
}
